Like-named read-outs stand apart in the source and are kept apart here.
What was measured:
[1] = molecular target: T1, human NPC1L1 (Homo sapiens, UniProt Q9UHC9, T1073A); assay: Radioligand binding of [3H]-glucuronidated ezetimibe (compound 4) to cell membranes
T1 construct: expressed in transfected cells
T1 sequence (Q9UHC9 22-1332 isoform Q9UHC9-2 T1046A): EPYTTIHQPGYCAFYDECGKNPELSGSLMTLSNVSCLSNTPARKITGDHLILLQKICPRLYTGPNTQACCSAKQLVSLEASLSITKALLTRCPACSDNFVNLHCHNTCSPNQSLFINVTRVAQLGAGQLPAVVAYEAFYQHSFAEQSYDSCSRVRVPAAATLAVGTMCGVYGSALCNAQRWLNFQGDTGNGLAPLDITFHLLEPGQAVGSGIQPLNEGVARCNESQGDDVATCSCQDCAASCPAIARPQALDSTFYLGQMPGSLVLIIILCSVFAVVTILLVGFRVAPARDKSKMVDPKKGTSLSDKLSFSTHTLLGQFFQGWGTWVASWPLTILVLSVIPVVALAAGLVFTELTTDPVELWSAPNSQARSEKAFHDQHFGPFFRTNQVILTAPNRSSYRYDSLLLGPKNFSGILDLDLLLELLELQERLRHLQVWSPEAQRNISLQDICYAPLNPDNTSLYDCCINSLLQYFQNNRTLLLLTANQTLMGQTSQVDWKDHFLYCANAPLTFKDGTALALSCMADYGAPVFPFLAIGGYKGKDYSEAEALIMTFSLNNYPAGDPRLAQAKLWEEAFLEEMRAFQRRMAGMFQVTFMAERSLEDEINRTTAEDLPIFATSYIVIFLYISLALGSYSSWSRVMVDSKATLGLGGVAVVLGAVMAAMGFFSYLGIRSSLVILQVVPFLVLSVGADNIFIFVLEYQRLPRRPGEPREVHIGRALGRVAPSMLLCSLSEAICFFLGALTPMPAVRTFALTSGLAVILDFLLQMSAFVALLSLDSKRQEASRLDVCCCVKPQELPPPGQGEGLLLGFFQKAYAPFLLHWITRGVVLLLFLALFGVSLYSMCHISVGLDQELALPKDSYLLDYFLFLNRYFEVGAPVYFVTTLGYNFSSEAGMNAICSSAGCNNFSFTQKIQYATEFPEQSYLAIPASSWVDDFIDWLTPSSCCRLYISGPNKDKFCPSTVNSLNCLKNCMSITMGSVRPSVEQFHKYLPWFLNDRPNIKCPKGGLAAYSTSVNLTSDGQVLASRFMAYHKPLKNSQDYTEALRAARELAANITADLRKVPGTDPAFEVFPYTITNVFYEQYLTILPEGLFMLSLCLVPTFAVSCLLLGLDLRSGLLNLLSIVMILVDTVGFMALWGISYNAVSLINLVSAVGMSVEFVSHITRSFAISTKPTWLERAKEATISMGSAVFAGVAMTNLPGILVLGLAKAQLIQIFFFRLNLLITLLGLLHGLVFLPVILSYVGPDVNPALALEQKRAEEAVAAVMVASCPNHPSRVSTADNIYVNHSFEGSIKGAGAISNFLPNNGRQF
Protocol: (§1) Cell Culture and Membrane Preparation. […] Cells were maintained in DMEM supplemented with 10% FBS, 100 U/ml pen/strep, and 500 μg/ml geneticin at 37° C., 5% CO2. All cell culture reagents were obtained from Invitrogen Life Technologies, (Carlsbad, Calif.). Cell membranes were prepared by lysing cells in 5 mM HEPES with protease inhibitors (Complete™ Protease Inhibitor Cocktail Tablets; Roche Diagnostics Corp., Indianapolis Ind.) for 15 min at 4° C. A membrane pellet was obtained by centrifuging the cell lysates at 12,000×g for 25 min. […] Radioligand. […] Natl. Acad. Sci. […] Reactions were performed in binding buffer (5 mM HEPES, 5.5 mM glucose, 117 mM NaCl and 5.4 mM KCl, pH 7.4). Cell membranes (50 μg in 20 μl) were added to each well. […] Binding reactions were incubated for 2 hours at 37° C. Samples were transferred to Unifilter-96 GF/C plates (Perkin Elmer, Wellesley Mass.) and filtered using a Brandel harvester (Gaithersburg Md.). […] Liquid scintillant (50 μl; Microscint-20, Perkin Elmer, Wellesley Mass.) was added and the bound radioactivity was measured using a microplate scintillation counter.

[2] = molecular target: T2, monkey NPC1L1 (Macaca mulatta, UniProt A0MJA5); assay: Fluorescence NPC1L1 binding assay, HEK-293 cells, BODIPY-labeled compound 1; set-up: species or system rhesus monkey; details: for Ki / Ki Monkey NPC1L1: Table 3, Monkey; for Ki: read-out: Ki Monkey NPC1L1
Protocol: (§2) Cell Culture and Membrane Preparation. Each plasmid pCR3.1 harboring NPC1L1 was prepared using standard molecular biology protocols. Stable cell lines expressing human, rhesus monkey, mouse, rat, hamster, canine or rabbit NPC1L1 were generated using Lipofectamine 2000 transfection reagent in HEK-293 cells according to the manufacturer's protocol. Cells were maintained in DMEM supplemented with 10% FBS, 100 U/ml pen/strep, and 500 μg/ml geneticin at 37° C., 5% CO2. All cell culture reagents were obtained from Invitrogen Life Technologies, (Carlsbad, Calif.). Cell membranes were prepared by lysing cells in 5 mM HEPES with protease inhibitors (Complete™ Protease Inhibitor Cocktail Tablets; Roche Diagnostics Corp., Indianapolis Ind.) for 15 min at 4° C. A membrane pellet was obtained by centrifuging the cell lysates at 12,000×g for 25 min. The membranes were resuspended in 5 mM HEPES with protease inhibitors and triturated with a 21G needle.
(§3) Fluorescence. Cells were plated into 384-well black/clear plates (BD Biosciences, Bedford Mass.) for binding experiments the following day. The media was aspirated. […] Media (20 μl) containing the indicated concentration of compound was then added to the wells. […] The binding reaction was allowed to proceed for 4 hours at 37° C. Subsequently the media was aspirated and the cells washed once with PBS.

[3] = molecular target: T2, monkey NPC1L1; assay: Radioligand binding of [3H]-glucuronidated ezetimibe (compound 4) to cell membranes; set-up: species or system rhesus monkey
Protocol: as §1

[4] = molecular target: rabbit NPC1L1 (Oryctolagus cuniculus, UniProt A0MJA7); assay: Fluorescence NPC1L1 binding assay, HEK-293 cells, BODIPY-labeled compound 1; details: for Ki / Ki Rabbit NPC1L1: Table 3, Rabbit; for Ki: read-out: Ki Rabbit NPC1L1
Protocol: as §2, §3

[5] = molecular target: hamster NPC1L1 (Mesocricetus auratus, UniProt A0MJA8); assay: as above; details: for Ki / Ki Hamster NPC1L1: Table 3, Hamster; for Ki: read-out: Ki Hamster NPC1L1
Protocol: as §2, §3

[6] = molecular target: T1, human NPC1L1; assay: as above; details: for Ki / Ki Human NPC1L1: Table 3, Human; for Ki: read-out: Ki Human NPC1L1
Protocol: as §2, §3

[7] = molecular target: T3, rat NPC1L1 (Rattus norvegicus, UniProt Q6T3U3, A349V/E317P/G318E/K324N/L297S); assay: as above; details: for Ki / Ki Rat NPC1L1: Table 3, Rat; for Ki: read-out: Ki Rat NPC1L1
T3 construct: expressed in transfected cells
Protocol: as §2, §3

[8] = molecular target: canine NPC1L1 (Canis lupus familiaris, UniProt A0MJA4); assay: as above; details: for Ki / Ki Dog NPC1L1: Table 3, Dog; for Ki: read-out: Ki Dog NPC1L1
Protocol: as §2, §3

[9] = molecular target: T4, mouse NPC1L1 (Mus musculus, UniProt Q6T3U4, N476K); assay: Fluorescence NPC1L1 binding assay, HEK-293 cells, fluorescent compound 2 as ligand; details: for Kd: saturation binding, mouse NPC1L1; for Ki / Ki Mouse NPC1L1: Table 3, Mouse; for Ki: read-out: Ki Mouse NPC1L1
T4 construct: expressed in transfected cells
Protocol: as §2, §3
In an effort to show binding to mouse NPC1L1, several related ezetimibe analogs were examined as possible alternatives to fluorescently-labeled (BODIPY) ezetimibe glucuronide (compound 1) in the binding assay. Compound 2, which is a fluorescently labeled synthetic precursor for fluorescently-labeled (BODIPY) ezetimibe glucuronide (compound 1; Burnett et al., Bioorganic and Medicinal Chemistry Letters 12:315-318 (2002)), was identified as a viable option for detection of mouse NPC1L1 binding. Compound 2 contains a methyl ester substitution for the carboxylic acid on the glucuronide portion of the molecule (compound structures shown in FIG. 4A).

[10] = system: cholesterol; assay: In vivo cholesterol lowering activity
[11] = system: plasma and liver cholesterol; assay: Percent cholesterol lowering in plasma and liver; format: in vivo; details: hamster
[12] = system: NPC1L1 orthologs of multiple species; assay: Binding to NPC1L1 orthologs of multiple species; details: NPC1L1 orthologs of the species tested
Protocol: as §2, §3

[13] = system: ^14C-cholesterol absorption; assay: Acute cholesterol absorption assay; format: in vivo; details: intraduodenal
Protocol: Acute cholesterol absorption assay. ^14C-cholesterol absorption was determined acutely in rats using conditions previously described (Van Heek et al., J. Pharmacol. Exp. Ther. 283: 157-163 (1997)). Compounds were dissolved in rat bile and delivered (1.0 ml) intraduodenally by bolus injection via an intestinal catheter, followed by 1.0 ml saline rinse (0.9%). Following a 30 min incubation, a cholesterol emulsion containing 3 mg cholesterol and 2 μCi ^14C-cholesterol (3 ml) was delivered to each rat as a bolus via intestinal catheter, followed by 1 ml saline rinse. Animals were sacrificed 90 min later and ^14C-cholesterol levels in plasma, liver, intestinal contents, and intestinal wall were determined.

## Cc1cc(C)n2c1C=C1C=CC(CCC(=O)NCC#Cc3ccc(N4C(=O)[C@H](CC[C@H](O)c5ccc(F)cc5)[C@H]4c4ccc(O[C@@H]5O[C@H](C(=O)O)[C@@H](O)[C@H](O)[C@H]5O)cc4)cc3)=[N+]1[B-]2(F)F [compound 1, BODIPY-labeled glucuronidated ezetimibe]
[1]
  Ki: 2500 nM
[2]; saturation binding, monkey NPC1L1, 4 h
  Kd: 46 nM
[3]
  Ki: 210 nM
[4]; saturation binding, rabbit NPC1L1, 4 h
  Kd: 151 nM
[5]; saturation binding, hamster NPC1L1, 4 h
  Kd: 49 nM
[6]; saturation binding, human NPC1L1, 4 h
  Kd: 61 nM
[7]; saturation binding, rat NPC1L1, 4 h
  Kd: 58 nM
[8]; saturation binding, canine NPC1L1, 4 h
  Kd: 52 nM
[9]
  Kd: could not be detected

## COC(=O)[C@H]1O[C@@H](Oc2ccc([C@@H]3[C@@H](CC[C@H](O)c4ccc(F)cc4)C(=O)N3c3ccc(C#CCNC(=O)CCC4=[N+]5C(=Cc6c(C)cc(C)n6[B-]5(F)F)C=C4)cc3)cc2)[C@H](O)[C@@H](O)[C@@H]1O [compound 2]
[1]
  Ki: 120 nM
[3]
  Ki: 70 nM
[3]; monkey NPC1L1, methyl ester for carboxylic acid
  increase in affinity versus compound 1: 3 fold
[9]; read-out: Kd
  Kd: 118 nM

## O=C1[C@H](CC[C@H](O)c2ccc(F)cc2)[C@@H](c2ccc(O[C@@H]3O[C@H](CO)[C@@H](O[C@@H]4O[C@H](CO)[C@@H](O)[C@H](O)[C@H]4O)[C@H](O)[C@H]3O)cc2)N1c1ccc(F)cc1 [compound 5]
[2]
  Ki: 370 nM
[10]
  in vivo cholesterol lowering activity: exhibiting in vivo cholesterol lowering activity
[11]
  cholesterol lowering Liver: 86%
  cholesterol lowering Plasma: 36%
[4]
  Ki: 1900 nM
[5]
  Ki: 1200 nM
[6]
  Ki: 2150 nM
[7]
  Ki: 542 nM
[8]
  Ki: 1280 nM
[9]
  Ki: 7700 nM

## O=C1[C@H](CC[C@H](O)c2ccc(F)cc2)[C@@H](c2ccc(O)cc2)N1c1ccc(I)cc1 [compound 6]
[2]
  Ki: 1600 nM
[10]
  in vivo cholesterol lowering activity: exhibiting in vivo cholesterol lowering activity
[11]
  cholesterol lowering Liver: 63%
  cholesterol lowering Plasma: 22%
[4]
  Ki: 5000 nM
[5]
  Ki: 2340 nM
[6]
  Ki: 4590 nM
[7]
  Ki: 1460 nM
[8]
  Ki: 1430 nM
[9]
  Ki: 16400 nM

## O=C(CS[C@H]1C(=O)N(c2ccc(F)cc2)[C@@H]1c1ccc(O)cc1)c1ccc(F)cc1 [compound 7]
[12]
  NPC1L1 binding activity: decreased
[10]
  in vivo cholesterol lowering activity: exhibiting in vivo cholesterol lowering activity
[13]; rat, read-out: rat ED50, inhibition of cholesterol absorption
  ED50: 0.036 mg/kg
[11]
  cholesterol lowering Liver: 96%
  cholesterol lowering Plasma: 47%
[4]
  Ki: 5600 nM
[5]
  Ki: 4280 nM
[7]
  Ki: 2100 nM
[8]
  Ki: 2300 nM
[9]
  Ki: 21600 nM

## COc1ccc(N2C(=O)[C@H](CCCc3ccccc3)[C@H]2c2ccc(O[C@@H]3O[C@H](COCc4ccccc4)[C@@H](OCc4ccccc4)[C@H](OCc4ccccc4)[C@H]3OCc3ccccc3)cc2)cc1 [compound 8]
[2]
  Ki Monkey NPC1L1: In- active
[12]
  NPC1L1 binding activity: total loss
[10]
  in vivo cholesterol lowering activity: no in vivo cholesterol lowering activity
[13]
  rat ED50, inhibition of cholesterol absorption: In- active
[4]
  Ki Rabbit NPC1L1: In- active
[5]
  Ki Hamster NPC1L1: In- active
[6]
  Ki Human NPC1L1: In- active
[7]
  Ki Rat NPC1L1: In- active
[8]
  Ki Dog NPC1L1: In- active
[9]
  Ki Mouse NPC1L1: In- active

## COc1ccc(N2C(=O)[C@H](CCCc3ccccc3)[C@H]2c2ccc(F)cc2)cc1 [compound 9]
[2]
  Ki Monkey NPC1L1: In- active
[12]
  NPC1L1 binding activity: total loss
[10]
  in vivo cholesterol lowering activity: no in vivo cholesterol lowering activity
[13]
  rat ED50, inhibition of cholesterol absorption: In- active
[11]
  cholesterol lowering Liver: In- active
  cholesterol lowering Plasma: In- active
[4]
  Ki Rabbit NPC1L1: In- active
[5]
  Ki Hamster NPC1L1: In- active
[6]
  Ki Human NPC1L1: In- active
[7]
  Ki Rat NPC1L1: In- active
[8]
  Ki Dog NPC1L1: In- active
[9]
  Ki Mouse NPC1L1: In- active
